Laboratory results: patent US10640512B2, “Imidazopyrazinamine phenyl derivative and use thereof” (HANGZHOU SANYINTAI PHARMACEUTICAL TECHNOLOGY CO., LTD., priority 2016, dated 2020)
Read-outs that look alike come from different tables or passages of the source.

Experiments:
HCK = HCK (Homo sapiens, UniProt P08631); assay: Caliper Mobility Shift Assay, kinase inhibition; format: biochemical
Text: (§1) The test method used was the Caliper Mobility Shift Assay, the kinases to be tested are BTK, ITK, TEC, EGFR, HER2, HER4, JAK3, HCK, LYN, SRC and SYK. The standard reference compound used was staurosporine.

LYN = LYN (Homo sapiens, UniProt P07948); assay: Caliper Mobility Shift Assay, kinase inhibition; format: biochemical
Text: as §1

SRC = SRC (Homo sapiens, UniProt P12931); assay: Caliper Mobility Shift Assay, kinase inhibition; format: biochemical
Text: as §1

SYK = SYK (Homo sapiens, UniProt P43405); assay: Caliper Mobility Shift Assay, kinase inhibition; format: biochemical
Text: as §1

[1] = In vitro liver microsomal metabolism (mouse); format: in vitro ADME; details: for half-life / CLint scaled: mouse liver microsomes; for half-life: NADPH, 37° C., read-out: T1/2 in liver microsomes; for CLint scaled: calculated from elimination half life, read-out: intrinsic clearance (CLint)
Description: (§2) In addition, in vitro liver microsomal metabolism of the compounds of the present invention was also tested. The test compound was co-incubated with NADPH and mouse or human liver microsomes in a 37° C. water bath pot, a reaction was initiated by adding the test compound. […] was taken at different time points (0, 10, 20, 40 and 60 minutes) and transferred to acetonitrile containing an internal standard. After proteins were precipitated, the supernatant was obtained by centrifugation. The test compound in the supernatant was analyzed by the LC-MS/MS method. The intrinsic clearance in vitro was calculated according to the elimination half life of the test compound in the incubation system. Midazolam was subjected to parallel incubation as a positive control. […] Tests of the other compounds of the present invention also had similar results.

[2] = In vitro liver microsomal metabolism (human); format: in vitro ADME; details: human liver microsomes; for half-life: NADPH, 37° C., read-out: T1/2 in liver microsomes; for CLint scaled: calculated from elimination half life, read-out: intrinsic clearance (CLint)
Description: as §2

[3] = disclosed in a conference paper (2nd International Conference on New Concepts in B-cell Malignancies, 2016); cited from earlier work
BTK = BTK (Homo sapiens, UniProt Q06187); assay: Caliper Mobility Shift Assay, kinase inhibition; format: biochemical; details: for IC50: BTK enzyme activity; for inhibiting effects on BTK kinase (in words): summary of Table 1
Text: as §1

EGFR = EGFR (Homo sapiens, UniProt P00533); assay: Caliper Mobility Shift Assay, kinase inhibition; format: biochemical
Text: as §1

HER2 = HER2 (Homo sapiens, UniProt P04626); assay: Caliper Mobility Shift Assay, kinase inhibition; format: biochemical
Text: as §1

HER4 = HER4 (Homo sapiens, UniProt Q15303); assay: Caliper Mobility Shift Assay, kinase inhibition; format: biochemical
Text: as §1

ITK = molecular target: T1, ITK (Homo sapiens, UniProt Q08881); assay: Caliper Mobility Shift Assay, kinase inhibition; format: biochemical
T1 sequence (Q08881 1-620): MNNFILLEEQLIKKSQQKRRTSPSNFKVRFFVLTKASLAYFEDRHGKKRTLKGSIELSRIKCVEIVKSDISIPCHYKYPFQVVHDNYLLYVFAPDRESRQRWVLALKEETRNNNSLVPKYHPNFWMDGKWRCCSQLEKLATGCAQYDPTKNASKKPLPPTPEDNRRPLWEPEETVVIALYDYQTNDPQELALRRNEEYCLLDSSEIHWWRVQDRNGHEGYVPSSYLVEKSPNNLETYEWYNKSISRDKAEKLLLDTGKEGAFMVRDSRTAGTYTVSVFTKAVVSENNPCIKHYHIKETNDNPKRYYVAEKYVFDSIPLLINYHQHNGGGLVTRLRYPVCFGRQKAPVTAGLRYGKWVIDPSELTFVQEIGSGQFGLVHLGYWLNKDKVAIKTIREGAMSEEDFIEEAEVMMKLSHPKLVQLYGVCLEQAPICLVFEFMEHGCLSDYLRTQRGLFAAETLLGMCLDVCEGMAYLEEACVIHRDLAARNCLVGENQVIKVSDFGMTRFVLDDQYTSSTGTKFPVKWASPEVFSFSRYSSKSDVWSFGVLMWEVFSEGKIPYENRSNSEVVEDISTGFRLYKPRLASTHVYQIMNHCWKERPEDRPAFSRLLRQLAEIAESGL
Text: as §1

JAK3 = molecular target: T2, JAK3 (Homo sapiens, UniProt P52333); assay: Caliper Mobility Shift Assay, kinase inhibition; format: biochemical
T2 sequence (P52333 1-1124): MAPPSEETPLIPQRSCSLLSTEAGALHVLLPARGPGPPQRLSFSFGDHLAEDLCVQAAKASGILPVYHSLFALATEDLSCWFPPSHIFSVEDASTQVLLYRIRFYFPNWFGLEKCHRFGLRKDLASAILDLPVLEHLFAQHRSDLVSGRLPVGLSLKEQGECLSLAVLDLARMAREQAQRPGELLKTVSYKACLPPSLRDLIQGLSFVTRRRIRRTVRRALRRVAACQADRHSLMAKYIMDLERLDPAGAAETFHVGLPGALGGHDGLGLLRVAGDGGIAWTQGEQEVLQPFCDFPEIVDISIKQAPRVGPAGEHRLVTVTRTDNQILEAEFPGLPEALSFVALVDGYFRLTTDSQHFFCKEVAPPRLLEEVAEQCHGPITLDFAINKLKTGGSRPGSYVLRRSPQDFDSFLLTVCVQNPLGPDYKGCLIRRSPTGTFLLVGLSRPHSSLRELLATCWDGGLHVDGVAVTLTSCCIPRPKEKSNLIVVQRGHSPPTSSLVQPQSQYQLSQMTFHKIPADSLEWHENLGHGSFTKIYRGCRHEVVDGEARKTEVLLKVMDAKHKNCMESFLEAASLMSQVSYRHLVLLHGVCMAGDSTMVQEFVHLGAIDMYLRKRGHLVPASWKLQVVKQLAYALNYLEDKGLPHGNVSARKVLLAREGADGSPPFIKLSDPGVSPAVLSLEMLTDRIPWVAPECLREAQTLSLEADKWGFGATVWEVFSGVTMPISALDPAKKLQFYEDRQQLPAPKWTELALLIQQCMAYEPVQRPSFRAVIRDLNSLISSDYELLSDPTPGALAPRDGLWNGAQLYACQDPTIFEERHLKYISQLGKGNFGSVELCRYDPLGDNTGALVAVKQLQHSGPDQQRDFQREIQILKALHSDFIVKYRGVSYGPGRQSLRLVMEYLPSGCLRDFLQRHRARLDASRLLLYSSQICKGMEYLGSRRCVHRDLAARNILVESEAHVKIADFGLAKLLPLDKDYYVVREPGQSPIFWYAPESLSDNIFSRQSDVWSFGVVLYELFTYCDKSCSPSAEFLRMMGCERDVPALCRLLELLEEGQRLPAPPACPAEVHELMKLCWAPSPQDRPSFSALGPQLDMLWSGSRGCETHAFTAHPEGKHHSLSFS
Text: as §1

TEC = molecular target: T3, TEC (Homo sapiens, UniProt P42680); assay: Caliper Mobility Shift Assay, kinase inhibition; format: biochemical
T3 sequence (P42680 1-631): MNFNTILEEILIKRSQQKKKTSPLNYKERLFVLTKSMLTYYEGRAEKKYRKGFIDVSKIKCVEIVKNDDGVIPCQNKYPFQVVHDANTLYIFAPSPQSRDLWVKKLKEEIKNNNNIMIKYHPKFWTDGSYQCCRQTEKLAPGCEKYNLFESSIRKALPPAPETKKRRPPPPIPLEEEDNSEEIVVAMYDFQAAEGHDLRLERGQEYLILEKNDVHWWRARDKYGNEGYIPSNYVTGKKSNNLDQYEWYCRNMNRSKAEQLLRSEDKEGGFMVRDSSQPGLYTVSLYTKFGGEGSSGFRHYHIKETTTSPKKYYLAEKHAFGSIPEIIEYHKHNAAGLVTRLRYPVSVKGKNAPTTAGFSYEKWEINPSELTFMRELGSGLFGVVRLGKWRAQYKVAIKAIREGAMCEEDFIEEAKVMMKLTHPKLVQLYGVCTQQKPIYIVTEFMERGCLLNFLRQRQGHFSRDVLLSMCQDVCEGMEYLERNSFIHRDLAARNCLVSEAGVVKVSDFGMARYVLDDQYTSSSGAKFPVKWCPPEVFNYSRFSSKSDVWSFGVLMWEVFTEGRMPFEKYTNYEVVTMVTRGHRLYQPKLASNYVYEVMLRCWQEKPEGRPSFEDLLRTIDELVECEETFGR
Text: as §1

[4] = Pharmacokinetic properties in CD-1 mouse; format: in vivo; details: both sexes, plasma; for AUC(0-t): read-out: AUClast (area under the curve); for half-life: read-out: Terminal t1/2 (half life) (converted)
Description: Experiment animals: CD-1 mouse, males and females; body weight: 20-25 g;
Route of administration: oral/intravenous. […]
Sample collection: blood samples were collected at the following time points: 5 minutes, 15 minutes, 30 minutes, 1 hours, 2 hours, 4 hours, 8 hours and 24 hours after administration.
Sample analysis: The collected samples were tested using the LC-MS/MS method. The model of the instrument used was API4000.
Pharmacokinetic data analysis: the obtained plasma concentration data were fitted and calculated according to the non-compartmental model method using WinNolin.
In Table 3, CL: clearance. VSS: apparent volume of distribution at steady state. Terminal t1/2: half life. AUClast: area under the curve. MRTINF: average residence time. Tmax: peak time. Cmax: peak concentration. F: bioavailability, refers to the fraction of oral dosage actually reaching the blood circulation.

[5] = system: ITK, TEC, EGFR, HER2, HER4, JAK3, HCK, LYN, SRC and SYK; assay: Kinase selectivity panel, Caliper Mobility Shift Assay; format: biochemical; details: summary of Table 2
Description: The semi-inhibitory concentration IC50 of the compound (the concentration of the compound required to inhibit the enzyme activity to 50%) is determined by mixing a fixed enzyme with a specific substrate and different concentrations of the test compounds. The test method used was the Caliper Mobility Shift Assay, the kinases to be tested are BTK, ITK, TEC, EGFR, HER2, HER4, JAK3, HCK, LYN, SRC and SYK. The standard reference compound used was staurosporine.
The results of experiments on the inhibitions of ITK, TEC, EGFR, HER2, HER4, JAK3, HCK, LYN, SRC and SYK enzyme activities by the target compound Id were summarized in Table 2. […] This selective inhibiting effect has important values for the treatment of diseases such as rheumatoid arthritis, B cell lymphoma, leukemia, multiple myeloma, allergies, asthma, multiple sclerosis, type I diabetes and systemic lupus erythematosus. The tests of other compounds of the present invention also have similar results.

[6] = 3 mg/kg, intravenous injection, single administration
[7] = 15 mg/kg, oral, single administration

Sequence of BTK (Q06187 whole entry): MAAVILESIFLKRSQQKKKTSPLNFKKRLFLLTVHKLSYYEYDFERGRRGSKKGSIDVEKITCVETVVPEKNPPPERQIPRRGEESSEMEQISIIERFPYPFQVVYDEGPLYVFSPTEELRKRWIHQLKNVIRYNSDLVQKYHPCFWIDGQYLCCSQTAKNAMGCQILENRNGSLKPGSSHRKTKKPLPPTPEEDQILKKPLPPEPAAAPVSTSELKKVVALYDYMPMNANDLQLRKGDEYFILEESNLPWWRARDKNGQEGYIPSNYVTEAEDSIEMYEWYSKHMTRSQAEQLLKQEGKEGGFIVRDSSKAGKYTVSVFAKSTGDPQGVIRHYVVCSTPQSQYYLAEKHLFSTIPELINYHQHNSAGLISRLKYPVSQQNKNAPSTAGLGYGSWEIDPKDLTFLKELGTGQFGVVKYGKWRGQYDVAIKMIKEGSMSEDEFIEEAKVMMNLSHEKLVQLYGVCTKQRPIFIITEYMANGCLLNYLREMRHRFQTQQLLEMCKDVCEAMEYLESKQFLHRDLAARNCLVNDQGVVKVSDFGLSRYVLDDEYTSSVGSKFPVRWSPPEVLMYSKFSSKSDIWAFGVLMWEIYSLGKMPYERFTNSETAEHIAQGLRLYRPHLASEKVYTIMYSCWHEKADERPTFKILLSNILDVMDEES
Sequence of LYN (P07948 whole entry): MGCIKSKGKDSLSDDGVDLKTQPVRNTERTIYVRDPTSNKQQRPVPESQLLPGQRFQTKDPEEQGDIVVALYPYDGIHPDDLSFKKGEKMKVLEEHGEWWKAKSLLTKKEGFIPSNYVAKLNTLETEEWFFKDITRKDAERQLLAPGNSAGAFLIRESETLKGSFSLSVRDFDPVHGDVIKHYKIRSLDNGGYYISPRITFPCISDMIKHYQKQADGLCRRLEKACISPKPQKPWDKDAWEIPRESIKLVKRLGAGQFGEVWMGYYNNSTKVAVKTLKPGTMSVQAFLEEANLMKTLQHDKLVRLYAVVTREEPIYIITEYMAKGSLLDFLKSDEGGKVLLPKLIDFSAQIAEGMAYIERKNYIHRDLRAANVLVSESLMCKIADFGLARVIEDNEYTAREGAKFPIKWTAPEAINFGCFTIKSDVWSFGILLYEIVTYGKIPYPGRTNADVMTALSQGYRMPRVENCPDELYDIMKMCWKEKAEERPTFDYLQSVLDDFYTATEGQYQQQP
Sequence of HCK (P08631 whole entry): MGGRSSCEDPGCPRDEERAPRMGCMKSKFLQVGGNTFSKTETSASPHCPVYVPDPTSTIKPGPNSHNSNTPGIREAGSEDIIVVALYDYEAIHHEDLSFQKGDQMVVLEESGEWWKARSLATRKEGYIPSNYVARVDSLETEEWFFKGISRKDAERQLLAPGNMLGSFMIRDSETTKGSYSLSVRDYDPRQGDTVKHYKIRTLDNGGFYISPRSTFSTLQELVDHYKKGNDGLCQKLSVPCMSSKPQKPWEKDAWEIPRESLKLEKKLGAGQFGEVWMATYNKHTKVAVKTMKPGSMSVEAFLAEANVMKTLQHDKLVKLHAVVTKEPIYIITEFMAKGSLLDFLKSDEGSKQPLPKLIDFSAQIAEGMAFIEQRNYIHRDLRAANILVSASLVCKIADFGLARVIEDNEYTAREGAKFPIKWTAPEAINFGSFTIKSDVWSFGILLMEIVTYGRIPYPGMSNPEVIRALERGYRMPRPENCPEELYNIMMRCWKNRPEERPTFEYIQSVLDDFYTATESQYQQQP
Sequence of SRC (P12931 whole entry): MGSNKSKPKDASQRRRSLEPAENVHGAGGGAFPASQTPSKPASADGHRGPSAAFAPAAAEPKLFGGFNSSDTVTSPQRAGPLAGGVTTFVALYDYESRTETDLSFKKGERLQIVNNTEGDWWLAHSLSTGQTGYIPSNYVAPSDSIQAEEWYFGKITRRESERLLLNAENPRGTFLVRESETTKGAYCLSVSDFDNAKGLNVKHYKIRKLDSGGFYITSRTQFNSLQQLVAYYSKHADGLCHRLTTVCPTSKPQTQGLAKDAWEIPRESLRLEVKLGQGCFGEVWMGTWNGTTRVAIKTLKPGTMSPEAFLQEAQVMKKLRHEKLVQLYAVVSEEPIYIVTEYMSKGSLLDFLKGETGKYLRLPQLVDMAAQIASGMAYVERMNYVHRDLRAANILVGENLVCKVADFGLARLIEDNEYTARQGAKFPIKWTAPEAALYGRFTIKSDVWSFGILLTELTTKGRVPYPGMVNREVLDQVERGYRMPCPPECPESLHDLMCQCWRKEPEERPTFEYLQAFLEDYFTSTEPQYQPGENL
Sequence of HER4 (Q15303 26-1308): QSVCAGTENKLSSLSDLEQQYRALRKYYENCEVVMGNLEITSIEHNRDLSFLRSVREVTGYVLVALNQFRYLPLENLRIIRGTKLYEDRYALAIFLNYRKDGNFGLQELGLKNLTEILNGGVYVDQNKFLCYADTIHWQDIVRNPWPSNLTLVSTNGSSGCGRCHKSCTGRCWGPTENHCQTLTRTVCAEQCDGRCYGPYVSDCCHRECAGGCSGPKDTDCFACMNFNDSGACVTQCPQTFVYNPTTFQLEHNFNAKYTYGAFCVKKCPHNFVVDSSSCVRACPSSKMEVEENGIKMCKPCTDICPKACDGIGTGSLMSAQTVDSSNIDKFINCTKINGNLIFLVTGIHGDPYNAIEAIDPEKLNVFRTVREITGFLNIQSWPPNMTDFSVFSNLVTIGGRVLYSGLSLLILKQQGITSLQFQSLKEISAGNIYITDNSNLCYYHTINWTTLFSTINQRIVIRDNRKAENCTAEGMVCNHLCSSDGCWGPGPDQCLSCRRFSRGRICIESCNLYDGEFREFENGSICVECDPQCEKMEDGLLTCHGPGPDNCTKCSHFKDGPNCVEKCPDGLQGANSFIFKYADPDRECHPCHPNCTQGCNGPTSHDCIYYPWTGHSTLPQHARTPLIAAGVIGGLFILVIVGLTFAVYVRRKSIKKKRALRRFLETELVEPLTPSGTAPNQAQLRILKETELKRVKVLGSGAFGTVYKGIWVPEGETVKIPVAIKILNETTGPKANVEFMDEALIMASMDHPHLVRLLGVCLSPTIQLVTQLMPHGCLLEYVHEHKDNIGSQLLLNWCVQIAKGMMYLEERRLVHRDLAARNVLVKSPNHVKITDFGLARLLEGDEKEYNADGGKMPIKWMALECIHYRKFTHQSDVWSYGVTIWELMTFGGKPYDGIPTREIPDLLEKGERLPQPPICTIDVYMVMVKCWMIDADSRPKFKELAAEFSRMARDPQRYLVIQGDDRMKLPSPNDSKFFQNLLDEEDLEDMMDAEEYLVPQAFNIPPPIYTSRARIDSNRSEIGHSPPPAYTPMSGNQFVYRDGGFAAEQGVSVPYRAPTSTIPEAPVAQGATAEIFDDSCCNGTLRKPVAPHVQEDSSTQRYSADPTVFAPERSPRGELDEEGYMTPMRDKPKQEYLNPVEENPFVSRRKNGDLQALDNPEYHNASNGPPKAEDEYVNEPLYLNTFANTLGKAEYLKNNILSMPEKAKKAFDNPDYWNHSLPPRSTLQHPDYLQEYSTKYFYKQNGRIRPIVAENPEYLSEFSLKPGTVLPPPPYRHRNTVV
Sequence of HER2 (P04626 23-1255): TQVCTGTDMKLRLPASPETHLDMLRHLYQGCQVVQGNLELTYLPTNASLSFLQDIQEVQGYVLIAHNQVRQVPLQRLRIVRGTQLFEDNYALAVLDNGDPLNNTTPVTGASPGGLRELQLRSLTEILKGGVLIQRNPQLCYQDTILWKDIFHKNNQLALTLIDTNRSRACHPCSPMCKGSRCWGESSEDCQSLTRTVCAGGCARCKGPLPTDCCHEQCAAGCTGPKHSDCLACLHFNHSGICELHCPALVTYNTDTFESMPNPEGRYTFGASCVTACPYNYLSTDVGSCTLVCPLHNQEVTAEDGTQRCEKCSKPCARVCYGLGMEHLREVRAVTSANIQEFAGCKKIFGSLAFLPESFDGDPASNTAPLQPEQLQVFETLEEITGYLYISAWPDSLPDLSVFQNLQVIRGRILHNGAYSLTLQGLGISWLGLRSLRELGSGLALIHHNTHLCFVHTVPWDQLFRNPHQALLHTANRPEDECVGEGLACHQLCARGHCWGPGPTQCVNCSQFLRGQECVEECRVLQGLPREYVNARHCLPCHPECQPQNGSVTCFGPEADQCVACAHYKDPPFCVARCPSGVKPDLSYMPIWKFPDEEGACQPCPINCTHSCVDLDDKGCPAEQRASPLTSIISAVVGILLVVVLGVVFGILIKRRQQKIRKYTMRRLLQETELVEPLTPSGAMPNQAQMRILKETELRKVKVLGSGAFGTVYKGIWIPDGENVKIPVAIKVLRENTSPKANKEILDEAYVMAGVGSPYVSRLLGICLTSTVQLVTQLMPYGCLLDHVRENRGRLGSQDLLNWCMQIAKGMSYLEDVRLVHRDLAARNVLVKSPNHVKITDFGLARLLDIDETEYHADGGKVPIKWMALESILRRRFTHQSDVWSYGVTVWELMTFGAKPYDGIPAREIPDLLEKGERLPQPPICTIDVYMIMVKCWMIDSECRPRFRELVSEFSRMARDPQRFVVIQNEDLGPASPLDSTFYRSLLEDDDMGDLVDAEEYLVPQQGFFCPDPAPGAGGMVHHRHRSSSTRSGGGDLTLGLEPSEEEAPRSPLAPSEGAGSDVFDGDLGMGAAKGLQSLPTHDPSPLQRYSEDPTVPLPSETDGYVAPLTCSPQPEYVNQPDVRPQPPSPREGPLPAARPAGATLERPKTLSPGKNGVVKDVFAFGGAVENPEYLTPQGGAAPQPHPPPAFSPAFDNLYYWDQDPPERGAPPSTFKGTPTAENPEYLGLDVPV

CC#CC(=O)N1CCC[C@H]1c1nc(-c2ccc(C(=O)Nc3ccccn3)cc2)c2c(N)nccn12 [Acalabrutinib, acalabrutinib, reference compound]
IC50 (HCK): > 1000 nM
IC50 (LYN): > 1000 nM
IC50 (SRC): > 1000 nM
IC50 (SYK): > 1000 nM
half-life [1]: 23.3 min
CLint scaled [1]: 234 mL/min/kg
half-life [2]: 11.9 min
CLint scaled [2]: 146 mL/min/kg
half life [3]: 67.8 min

CC#CC(=O)N1CCC[C@H]1c1nc(-c2ccc(NC(=O)c3ccccn3)cc2)c2c(N)nccn12 [Compound of formula Ia]
IC50 (BTK): 415 nM
inhibiting effects on BTK kinase (in words) (BTK): strong inhibiting effects

CC#CC(=O)N1CCC[C@H]1c1nc(-c2ccc(C(=O)Nc3ccccn3)c(C)c2)c2c(N)nccn12 [Compound of formula Ib]
IC50 (BTK): 50 nM
inhibiting effects on BTK kinase (in words) (BTK): very strong inhibiting effects

CC#CC(=O)N1CCC[C@H]1c1nc(-c2ccc(Oc3ccccn3)cc2)c2c(N)nccn12 [Compound of formula Ic]
IC50 (BTK): 577 nM
inhibiting effects on BTK kinase (in words) (BTK): strong inhibiting effects

CC#CC(=O)N1CCC[C@H]1c1nc(-c2ccc(Oc3ccccc3)cc2)c2c(N)nccn12 [Compound of formula Id]
IC50 (BTK): 4.8 nM
inhibiting effects on BTK kinase (in words) (BTK): very strong inhibiting effects
IC50 (EGFR): > 1000 nM
IC50 (HCK): > 1000 nM
IC50 (HER2): > 1000 nM
IC50 (HER4): > 1000 nM
IC50 (ITK): > 1000 nM
IC50 (JAK3): > 1000 nM
IC50 (LYN): > 1000 nM
IC50 (SRC): > 1000 nM
IC50 (SYK): > 1000 nM
IC50 (TEC): 40 nM
AUC(0-t) [4, 6]: 661 ng·h/mL
clearance ([4]; 3 mg/kg, intravenous injection, single administration, read-out: CL (clearance) (converted)): 77 mL/min/kg
MRT inf ([4]; 3 mg/kg, intravenous injection, single administration, read-out: MRTINF (average residence time)): 17.8 min
half-life [4, 6]: 17.2 min
Vd ([4]; 3 mg/kg, intravenous injection, single administration, read-out: Vss (apparent volume of distribution at steady state)): 1.3 L/kg
bioavailability ([4]; 15 mg/kg oral vs 3 mg/kg intravenous, read-out: F (bioavailability)): 56.4%
AUC(0-t) [4, 7]: 1880 ng·h/mL
Cmax ([4]; 15 mg/kg, oral, single administration, read-out: Cmax (peak concentration)): 848 ng/mL
half-life [4, 7]: 98.4 min
Tmax ([4]; 15 mg/kg, oral, single administration, read-out: Tmax (peak time)): 15 min
half-life [1]: 8.26 min
CLint scaled [1]: 661 mL/min/kg
metabolism rate relative to acalabrutinib (in words) ([1]; mouse or human liver microsomes): metabolized faster than acalabrutinib
half-life [2]: 3.13 min
CLint scaled [2]: 555 mL/min/kg
selective inhibiting activity (in words) [5]: good
